# Measurements reported in patent US11160767B2, “4,4′-trans-dihydroxystilbene for use in treating cancer” (The George Washington University, a Congressionally …, priority 2017, dated 2021).
# How the values were obtained:
# PANC-1 = experiment: In vitro cytotoxicity (SRB assay), PANC-1; type: cell-based; conditions: Homo sapiens, 72 hours
# Method: Cell lines and cell culture. HCT116, U205, PANC-1, MDA-231 cell lines were purchased from the American Type Culture Collection (Rockville, Md., US). Cells were cultured in the DMEM medium (Lonza, Basel, Switzerland) containing 10% fetal bovine serum (Gibco, Grand Island, N.Y., US), 100 Units/ml penicillin, 100 Units/mL streptomycin, […] L-glutamine (Gibco, Grand Island, N.Y., US) at 37° C. in a humidified atmosphere with 5% CO2.
# In vitro cytotoxicity assays. […] SRB assay (Vichai and Kirtikara, 2006) was performed and the absorbance at 510 nm was read with a plate reader. The proliferation rate was calculated according to the Manufacturer's instruction. The IC50 value for each compound was determined from dose-effect relationship using the CompuSyn software (version 1.0.1; CompuSyn, Inc, Paramus, N.J.) (Chou, 2006). Cell proliferating doubling time was monitored over a period of 72 hours.
# And-1 protein = And-1 protein level by Western blot; type: cell-based; conditions: U2OS and HCT116 cells
# Method: Western blot analysis. Compound-treated cells were harvested and lysed. Protein extracts were subjected to electrophoresis in a SDS-polyacrylamide gel. The resolved proteins were transferred onto polyvinylidene difluoride membranes (Amersham Biosciences, Piscataway, N.J., US). After the blocking step, membranes were incubated with primary IgG antibodies, washed, and then incubated with horseradish peroxidase-conjugated anti-rabbit IgG or anti-mouse IgG secondary antibodies. Western blot signals were visualized by chemiluminescence using SuperSignal West Pico chemiluminescence reagent (Pierce, Rockford, Ill., US).
# The effect of DHS treatment on And-1, RRM1, and RRM2 expression was investigated.
# HCT116 cells = experiment: BrdU incorporation by FACS; type: cell-based, human; conditions: reduced from 46.6%, 1 to 20 μM DHS
# Text: To test whether DHS can repress DNA replication, BrdU incorporation was examined using an immunofluorescent assay. […] BrdU incorporation was tracked by fluorescence-activated cell sorting (FACS).
# SKOV3 = experiment: DHS and cisplatin, SKOV3 cells; type: cell-based, human
# Text: The effect of DHS on a human SKOV3 ovarian cell line and its cisplatin-resistant subline, SKOV3/CP7, was investigated.
smiles,measurement,setting,value
"Oc1ccc(/C=C/c2ccc(O)cc2)cc1 [DHS, 4,4′-trans-dihydroxystilbene]",IC50,PANC-1,22 ± 6.42 µM
same,And-1 protein level,And-1 protein,caused down-regulation of And-1 protein
same,BrdU incorporation,HCT116 cells,9.52%
same,Sensitivity to DHS alone,SKOV3,sensitive to DHS treatment alone
